Results reported in patent US5968513A (priority 1996, dated 1999).

B1: partially purified native β-chain: crude preparation of native β-hCG (protein, UniProt P0DN86 21-165, looked up)
Choriogonadotropin subunit …: SKEPLRPRCRPINATLAVEKEGCPVCITVNTTICAGYCPTMTRVLQGVLPALPQVVCNYRDVRFESIRLPGCPRGVNPVVSYAVALSCQCALCRRSTTDCGGPKDHPLTCDDPRFQDSSSSKAPPPSLPSPSRLPGPSDTPILPQ
modifications: native, partially purified
notes: crude preparation of native β-hCG

Tested on: Hematopoietic progenitor cells from normal bone marrow and cord blood
Test: Clonogenic (colony) assays of hematopoietic progenitor cells in methylcellulose (CFU-MIX, BFU-e, CFU-GM)
Format: cell-based, human
Conditions: hCG preparations 200 IU/ml, subunits and peptides 100 μg/ml, 10 days, aggregates of more than 50 cells counted
Source text: Hematopoietic progenitor cells (2×10^5 cell/ml) were isolated from normal bone marrow and cord blood and seeded in methylcellulose. […] Aggregates containing more than 50 cells after 10 days of culture were counted as colonies.

Molecule	growth of hematopoietic progenitors (pro-hematopoietic activity, colony numbers)	growth of hematopoietic progenitors (pro-hematopoietic activity, colony numbers) (listed as whole β-chain)
α-hCG peptide 88-92: α-hCG peptide of amino acids 88-92 (YYHKS; UniProt P01215 112-116, looked up, fragment)	little or no effects	
β-hCG peptide 7-40: β-hCG peptide of amino acids 7-40 (PRCRPINATLAVEKEGCPVCITVNTTICAGYCPT; UniProt P0DN86 27-60, looked up, fragment)	little or no effects	
β-hCG peptide 34-49: β-hCG peptide of amino acids 34-49 (CAGYCPTMTRVLQGVL; UniProt P0DN86 54-69, looked up, fragment)	little or no effects	
β-hCG peptide 38-57: β-hCG peptide of amino acids 38-57 (CPTMTRVLQGVLPALPQVVC; UniProt P0DN86 58-77, looked up, fragment)	little or no effects	
β-hCG peptide 57-93: β-hCG peptide of amino acids 57-93 (CNYRDVRFESIRLPGCPRGVNPVVSYAVALSCQCALC; UniProt P0DN86 77-113, looked up, fragment)	little or no effects	
β-hCG peptide 74-95: β-hCG peptide of amino acids 74-95	little or no effects	
β-hCG peptide 100-110: β-hCG peptide of amino acids 100-110 (CGGPKDHPLTC; UniProt P0DN86 120-130, looked up, fragment)	little or no effects	
B1	directly promoted	considerable pro-hematopoietic activity
